Experimental data published in ChEMBL document CHEMBL2062522, “Halogenated spirotetronates from Actinoallomurus” (J Nat Prod, 2012).
Converted amounts (≈) assume the structure as drawn. The source made the active and inactive calls. The calls are words filed in the database; no cut-off is given here.

Experiments:
[1] = test system: Enterococcus faecium; experiment: Antibacterial activity against vancomycin-resistant Enterococcus faecium isolate L569 by broth microdilution method; type: functional
[2] = test system: Enterococcus faecalis; experiment: Antibacterial activity against vancomycin-sensitive Enterococcus faecalis isolate L559 by broth microdilution method; type: functional
[3] = test system: Staphylococcus aureus; experiment: Antibacterial activity against methicillin-resistant Staphylococcus aureus isolate L1400 by broth microdilution method; type: functional
[4] = test system: Streptococcus pyogenes; experiment: Antibacterial activity against Streptococcus pyogenes isolate L49 by broth microdilution method; type: functional
[5] = Cytotoxicity against mouse BMDM cells after 72 hrs by MTT assay; type: cell-based
[6] = test system: Enterococcus faecium; experiment: Antibacterial activity against vancomycin-sensitive Enterococcus faecium isolate L568 by broth microdilution method; type: functional
[7] = test system: Streptococcus pneumoniae; experiment: Antibacterial activity against penicillin-sensitive Streptococcus pneumoniae isolate L44 by broth microdilution method
[8] = test system: Enterococcus faecalis; experiment: Antibacterial activity against vancomycin-resistant Enterococcus faecalis isolate L560 by broth microdilution method; type: functional
[9] = test system: Staphylococcus aureus; experiment: Antibacterial activity against methicillin-sensitive Staphylococcus aureus ATCC 29213 by broth microdilution method; type: functional
[10] = cells; settings: Homo sapiens, HMEC-1, 72 h
Description: Cytotoxicity against human HMEC1 cells after 72 hrs by MTT assay

[11] = test system: Streptococcus pneumoniae; experiment: Antibacterial activity against Streptococcus pneumoniae BAA1402 expressing MefE efflux pump by broth microdilution method; type: functional
[12] = test system: Staphylococcus haemolyticus; experiment: Antibacterial activity against methicillin-sensitive Staphylococcus haemolyticus isolate L1730 by broth microdilution method; type: functional
[13] = test system: Staphylococcus aureus; experiment: Antibacterial activity against glycopeptide-intermediate,methicillin-resistant Staphylococcus aureus isolate L3797 by broth microdilution method; type: functional
[14] = test system: Staphylococcus aureus; experiment: Antibacterial activity against glycopeptide-intermediate Staphylococcus aureus isolate L3798 by broth microdilution method; type: functional
[15] = test system: Staphylococcus haemolyticus; experiment: Antibacterial activity against methicillin-resistant Staphylococcus haemolyticus isolate L1729 by broth microdilution method; type: functional
[16] = test system: Staphylococcus aureus; experiment: Antibacterial activity against methicillin-sensitive Staphylococcus aureus ATCC 25923 by broth microdilution method; type: functional
[17] = test system: Staphylococcus aureus; experiment: Antibacterial activity against methicillin-sensitive Staphylococcus aureus ATCC 6538P by broth microdilution method; type: functional
[18] = test system: Candida albicans; experiment: Antifungal activity against Candida albicans; type: functional, organism-based

Row | Structure (SMILES) | MIC [1] [mg/L] | MIC [2] [mg/L] | MIC [3] [mg/L] | MIC [4] [mg/L] | IC50 [5] [µM] | MIC [6] [mg/L] | MIC [7] [mg/L] | MIC [8] [mg/L] | MIC [9] [mg/L] | IC50 [10] [µM] | MIC [11] [mg/L] | MIC [12] [mg/L] | MIC [13] [mg/L] | MIC [14] [mg/L] | MIC [15] [mg/L] | MIC [16] [mg/L] | MIC [17] [mg/L] | Activity [18]
1 | CC[C@H]1C[C@@]23OC(=O)C(=C2O)C(=O)[C@]2(CC)[C@@H](C=C[C@@H]4[C@@H](O[C@H]5C[C@@H](O)[C@H](NC(=O)c6[nH]cc(Br)c6Br)[C@@H](C)O5)[C@@H](C)CC[C@@H]42)CCCC/C=C/[C@@]3(C)C=C1C(=O)O | 32 (≈ 34.3 µM) | 32 (≈ 34.3 µM) | 16 (≈ 17.2 µM) | 1 (≈ 1.07 µM) | 109 | 32 (≈ 34.3 µM) | 8 (≈ 8.58 µM) | 16 (≈ 17.2 µM) | 8 (≈ 8.58 µM) | 3 |  |  |  |  |  |  |  | 
2 | COc1cccc2c1C(=O)c1c(O)c3c(c(O)c1C2=O)C[C@@](O)(C(=O)CO)C[C@@H]3O[C@H]1C[C@H](N)[C@H](O)[C@H](C)O1 [DOXORUBICIN] |  |  |  |  | 4.6 |  |  |  |  | 0.06 |  |  |  |  |  |  |  | 
3 | CN[C@H](CC(C)C)C(=O)N[C@H]1C(=O)N[C@@H](CC(N)=O)C(=O)N[C@H]2C(=O)N[C@H]3C(=O)N[C@H](C(=O)N[C@H](C(=O)O)c4cc(O)cc(O)c4-c4cc3ccc4O)[C@H](O)c3ccc(c(Cl)c3)Oc3cc2cc(c3O[C@@H]2O[C@H](CO)[C@@H](O)[C@H](O)[C@H]2O[C@H]2C[C@](C)(N)[C@H](O)[C@H](C)O2)Oc2ccc(cc2Cl)[C@H]1O [VANCOMYCIN] | > 128 | 1 (≈ 0.69 µM) |  | 1 (≈ 0.69 µM) |  |  | 0.5 (≈ 0.345 µM) | > 128 |  |  | 4 (≈ 2.76 µM) | 1 (≈ 0.69 µM) | > 128 | 8 (≈ 5.52 µM) | 2 (≈ 1.38 µM) |  |  | 
4 | CC[C@H]1C[C@@]23OC(=O)C(=C2O)C(=O)[C@]2(CC)[C@@H](C=C[C@@H]4[C@@H](O[C@H]5C[C@@H](O)[C@H](NC(=O)c6[nH]ccc6Br)[C@@H](C)O5)[C@@H](C)CC[C@@H]42)CCCC/C=C/[C@@]3(C)C=C1C(=O)O | 64 (≈ 75 µM) | 16 (≈ 18.7 µM) | 4 (≈ 4.68 µM) | 4 (≈ 4.68 µM) | 143 | 64 (≈ 75 µM) | 8 (≈ 9.37 µM) | 16 (≈ 18.7 µM) | 2 (≈ 2.34 µM) | 43 |  |  |  |  |  |  |  | 
5 | CC[C@H]1C[C@@]23OC(=O)C(=C2O)C(=O)[C@]2(CC)[C@@H](C=C[C@@H]4[C@@H](O[C@H]5C[C@@H](O)[C@H](NC(=O)c6[nH]c(Cl)c(Cl)c6Cl)[C@@H](C)O5)[C@@H](C)CC[C@@H]42)CCCC/C=C/[C@@]3(C)C=C1C(=O)O | 8 (≈ 9.11 µM) | 2 (≈ 2.28 µM) | 4 (≈ 4.55 µM) | 8 (≈ 9.11 µM) | 47 | 16 (≈ 18.2 µM) | 8 (≈ 9.11 µM) | 2 (≈ 2.28 µM) | 2 (≈ 2.28 µM) | 2 | > 128 | 4 (≈ 4.55 µM) | 4 (≈ 4.55 µM) | 4 (≈ 4.55 µM) | 4 (≈ 4.55 µM) | 2 (≈ 2.28 µM) | 2 (≈ 2.28 µM) | 
6 | CC[C@H]1C[C@@]23OC(=O)C(=C2O)C(=O)[C@]2(CC)[C@@H](C=C[C@@H]4[C@@H](O[C@H]5C[C@@H](O)[C@H](NC(=O)c6[nH]c(Cl)cc6Cl)[C@@H](C)O5)[C@@H](C)CC[C@@H]42)CCCC/C=C/[C@@]3(C)C=C1C(=O)O | 4 (≈ 4.74 µM) | 0.5 (≈ 0.593 µM) | 1 (≈ 1.19 µM) | 2 (≈ 2.37 µM) | 50 | 8 (≈ 9.48 µM) | 4 (≈ 4.74 µM) | 0.5 (≈ 0.593 µM) | 0.25 (≈ 0.296 µM) | 9 | 64 (≈ 75.8 µM) | 1 (≈ 1.19 µM) | 0.5 (≈ 0.593 µM) | 1 (≈ 1.19 µM) | 1 (≈ 1.19 µM) | 0.5 (≈ 0.593 µM) | 0.5 (≈ 0.593 µM) | inactive
